Measured values from ChEMBL document CHEMBL1201862, “PubChem BioAssay data set” (2004).
Activity calls are given as the source filed them.

Tests used:
[1] = molecular target: Voltage-gated inwardly rectifying potassium channel KCNH2 (Homo sapiens, UniProt Q12809); assay: concentration-dependent hERG rescue from blockers – cell-based, thallium flux, dose response (AID 2121); format: ADME
[2] = HGIII-sPLA2 enzyme inhibition potency – biochemical, QFRET, IC50, dose response (AID 743457);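 also: green fluorescence rise as the enzyme cleaves BODIPY PC-A2 in liposomes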
Beta-galactosidase = Beta-galactosidase (Escherichia coli, UniProt Q8VNN2); assay: detection-enzyme interference by beta-gal modulators – biochemical, E. coli enzyme, set 3, artefact control for CCR6 antagonist project, dose response (AID 504712); format: functional
[3] = HEK-293T cell viability reduction – luminescence, B-cell screen hits, cytotoxicity control for BCR NF-kB inhibitor project, dose response (AID 489021); format: functional, cell-based;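 also: HEK-293T cells carrying an NF-kB luciferase reporter; cells exposed to compound for about 14 hours before viability readout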
[4] = fluconazole-exposed Candida albicans growth modulators – fluorescence, retest, confirmation (AID 2467); format: functional, cell-based
[5] = NIH-3T3 fibroblast cytotoxicity, dose response, cytotoxicity control, cell-based, fluorescence, Alamar Blue, secondary assay (AID 2327); format: functional;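 also: NIH-3T3 mouse fibroblasts cultured with fluconazole at 8 µg/mL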
INS1 = assay: INS-1E survival protection against cytokine death – cell-based, luminescence, retest, dose response (AID 449756); format: functional;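 also: cell death triggered by IL-1 beta plus TNF-alpha plus IFN-gamma mixture; protective hits raise ATP signal compared with cytokine alone wells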
[6] = molecular target: COUP transcription factor 2 (Homo sapiens, UniProt P24468); assay: Luminescence-based cell-based high throughput dose response assay to identify inhibitors of COUP-TFII (NR2F2).; format: functional;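 also: HEK293 cells transiently cotransfected with COUP-TFII expression vector and reporter; luciferase reporter luminescence driven by COUP-TFII from the pX2-168 reporter plasmid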
[7] = viability loss of HPDE-C7K cells – cell-based, fluorescence, HTS, primary screen (AID 431); format: functional; conditions: Homo sapiens
[8] = HPDE-C7 pancreatic duct cell viability loss – fluorescence, HTS (AID 430); format: functional, cell-based; conditions: Homo sapiens
Paired box protein Pax-8 = Paired box protein Pax-8 (Homo sapiens, UniProt Q06710); assay: PAX8 transcriptional activity inhibition in RMG-I – RMG-I cells, luciferase, cherry-pick, dose response (AID 687027); format: functional, cell-based;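 also: luciferase reporter driven by Pax8 target thyroperoxidase promoter measured by SteadyGlo luminescence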
[9] = Luminescence-based counterscreen assay for KLF5 inhibitors: dose response cell-based high throughput screening assay to identify cytotoxic compounds using the IEC-6 intestinal epithelial cell line. [Related pubchem assays: 1700 (Primary screen.), 1834 (Confirmation screen.), 1858 (Summary AID.), 1905 (Counterscreen.)]; format: functional
[10] = molecular target: Luciferin 4-monooxygenase (Photinus pyralis, UniProt P08659); assay: inhibition of purified Photinus pyralis luciferase – biochemical, luminescence, dose response (AID 1891)
[11] = Luminescence Cell-Based Dose Confirmation HTS to Identify Inhibitors of Platelet Dense Granule Release. [Related pubchem assays: 1663 (Primary HTS), 1678 (Summary of Project)]; format: functional
[12] = viability inhibitors of stage V gametocytes – luminescence, dose response (AID 1117278); format: functional, cell-based;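 also: gametocytes exposed to compound for 24 hours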
[13] = viability loss in human Jurkat cells – cell-based, luminescence, cytotoxicity control for P. falciparum gametocyte viability project, dose response (AID 1117277); format: functional;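 also: potency reflects loss of cellular ATP meaning fewer viable cells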
[14] = non-specific 3'UTR reporter inhibition in Clone20-Shn3RL – cell-based, Renilla luciferase, cherry-picked, counter-screen for Shn3 inhibitor project, dose response (AID 624133); format: functional
[15] = blockers of bursicon-stimulated LGR2 cAMP reporter – cell-based, HEK293, CRE-luciferase reporter, cherry pick, set 2, dose response (AID 743343); format: functional;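 also: transfected cells were stimulated with diluted bursicon conditioned medium after compound addition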
[16] = reduction of Shn3 3'UTR-driven luciferase in osteoblasts – cell-based, Clone20 osteoblasts, firefly luciferase, cherry-picked, dose response (AID 624132); format: functional;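 also: firefly luciferase luminescence from reporter carrying the Shn3 3'UTR in osteoblasts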
[17] = viability loss in HEK293 cells – cell-based, plate reader, cherry-picked samples, cytotoxicity control, dose response (AID 743446); format: functional
[18] = A549 cell cytotoxicity, dose response, cytotoxicity control, plate reader, cherry-pick, antagonist series (AID 743412); format: functional, cell-based
[19] = molecular target: T1, Microphthalmia-associated transcription factor (Homo sapiens, UniProt O75030); assay: reducers of TRPM1 reporter luminescence, concentration series – cell-based, SK-MEL-5, cherry-picked, set 3, MITF inhibitor project, dose response (AID 493073); format: functional;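 also: SK-MEL-5 melanoma cells with luciferase driven by the MITF target TRPM1 promoter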
T1 sequence (O75030 whole entry): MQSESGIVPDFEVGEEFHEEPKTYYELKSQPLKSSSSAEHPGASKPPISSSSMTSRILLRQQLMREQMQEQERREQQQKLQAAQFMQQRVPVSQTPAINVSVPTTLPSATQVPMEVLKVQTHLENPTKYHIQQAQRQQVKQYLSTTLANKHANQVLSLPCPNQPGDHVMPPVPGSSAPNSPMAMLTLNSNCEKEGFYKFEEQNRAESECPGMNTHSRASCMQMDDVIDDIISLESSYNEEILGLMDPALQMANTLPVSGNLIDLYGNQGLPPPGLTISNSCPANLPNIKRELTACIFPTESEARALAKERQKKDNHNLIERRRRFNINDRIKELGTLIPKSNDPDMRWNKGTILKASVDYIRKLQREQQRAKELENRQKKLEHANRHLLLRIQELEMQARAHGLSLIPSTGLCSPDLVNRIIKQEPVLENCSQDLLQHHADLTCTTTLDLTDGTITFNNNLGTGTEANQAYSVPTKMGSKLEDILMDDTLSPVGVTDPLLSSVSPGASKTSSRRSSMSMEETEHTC

[20] = Luminescence Cell-Based Dose Retest to Confirm Inhibitors of Cancer Stem Cells. [Related pubchem assays (depositor defined):AID2717, AID2721]; format: functional; conditions: Homo sapiens
[21] = loss of viability in HepG2 cells – cell-based, CellTiter-Glo, cherry-picked, cytotoxicity control for Shn3 inhibitor project, dose response (AID 624134); format: functional
A-375 = assay: proliferation inhibition in MITF-low A375 cells – cell-based, cherry-pick samples, set 2, counter-screen for MITF modulator project, dose response (AID 540335); format: functional; conditions: Homo sapiens
[22] = blockade of melanocortin 4 receptor signaling – cell-based, plate reader, cherry pick, counter-screen for LGR2 antagonist project, dose response (AID 743444); format: functional;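 also: transfected HEK 293 cells stimulated with alpha-MSH peptide; potency of inhibitors of the alpha-MSH evoked signal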
[23] = toxicity toward HepG2 liver cells – cell-based, plate reader, cherry-pick, antagonist series, cytotoxicity control, dose response (AID 743416); format: functional
Cytochrome P450 2D6 = Cytochrome P450 2D6 (Homo sapiens, UniProt P10635);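 also: CYP2D6 member of a cytochrome P450 panel assay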
Cytochrome P450 1A2 = molecular target: T2, Cytochrome P450 1A2 (Homo sapiens, UniProt P05177);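 also: PubChem cytochrome P450 panel assay, CYP1A2 panel member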
T2 sequence (P05177 whole entry): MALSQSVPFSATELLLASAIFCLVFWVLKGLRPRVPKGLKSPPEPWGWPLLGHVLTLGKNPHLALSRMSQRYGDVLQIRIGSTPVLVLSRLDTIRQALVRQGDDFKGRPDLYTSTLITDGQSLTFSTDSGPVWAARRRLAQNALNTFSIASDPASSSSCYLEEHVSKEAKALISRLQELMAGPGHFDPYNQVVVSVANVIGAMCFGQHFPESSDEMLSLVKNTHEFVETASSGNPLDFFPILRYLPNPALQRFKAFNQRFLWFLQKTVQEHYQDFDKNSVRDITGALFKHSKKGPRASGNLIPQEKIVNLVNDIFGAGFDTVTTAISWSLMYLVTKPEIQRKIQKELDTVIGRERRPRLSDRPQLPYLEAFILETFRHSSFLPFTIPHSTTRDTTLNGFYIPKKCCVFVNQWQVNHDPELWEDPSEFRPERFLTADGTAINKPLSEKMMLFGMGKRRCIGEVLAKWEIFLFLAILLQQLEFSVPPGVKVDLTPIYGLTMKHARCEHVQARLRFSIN

[24] = glucagon-like peptide-1 release potency in STC-1, concentration-response, half-maximal inhibitory concentration in the STC-1 line (AID 1117345); format: functional, cell-based
[25] = Potency on glucagon-like peptide 1 release, dose-response in NCI-H716 cell line, half maximal inhibitory concentration (AID 1117344); format: functional, cell-based
[26] = Shn3 3'UTR reporter signal decrease – cell-based, Clone20 osteoblasts, firefly luciferase, cherry-pick, set 2, Schnurri-3 inhibitor project, dose response (AID 720490); format: functional;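 also: actives lower the luminescence signal as inhibitors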
HEK293 [27] = assay: cells; format: functional, cell-based; conditions: Homo sapiens
HEK293 [28] = assay: cells; format: functional, cell-based; conditions: Homo sapiens; remark: listed apart in the source
HEK293 [29] = assay: NOD2 signaling inhibitors in MDP-stimulated cells, cell-based, uHTS, luminescence (AID 2001); format: functional; conditions: Homo sapiens
HEK293 [30] = assay: inhibition of NOD1-driven NF-kB reporter – cell-based, luminescence, uHTS, primary screen (AID 1578); format: functional; conditions: Homo sapiens
[31] = molecular target: Nucleotide-binding oligomerization domain-containing protein 2 (Homo sapiens, UniProt Q9HC29); assay: inhibition of NOD2-driven NF-kB reporter – cell-based, luminescence, uHTS, HEK293 (AID 1566); format: functional
HEK293 [32] = assay: cells; format: functional, cell-based; conditions: Homo sapiens; remark: listed apart in the source
[33] = CTGF mRNA reduction in DLD1 cells – cell-based, DLD1 colon cancer, RT-qPCR, cherry-pick, dose response (AID 1053122); format: functional; conditions: Cancer cell lines
Prothrombin = Prothrombin (Homo sapiens, UniProt P00734); assay: Thrombin 1536 HTS Dose Response Confirmation. [Related pubchem assays: 1046 (Thrombin 1536 HTS; hits were confirmed in this assay)]; format: functional
Cytochrome P450 3A4 = Cytochrome P450 3A4 (Homo sapiens, UniProt P08684);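 also: CYP3A4 tested as one member of a cytochrome P450 panel screen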
Cytochrome P450 2C9 = Cytochrome P450 2C9 (Homo sapiens, UniProt P11712)
[34] = reduced cellular PGC1a acetyl-lysine signal – cell-based, cherry-picked samples, dose response (AID 720514); format: functional;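 also: potency may reflect raised or lowered acetylation signal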
[35] = general cell-killing toxicity readout – plate reader, dry powder samples, cytotoxicity control for PAX8 inhibitor project, dose response (AID 743021); format: functional, cell-based
[36] = OVCAR8 cell viability loss – plate reader, dry powder samples, PAX8 project, dose response (AID 743197); format: functional, cell-based; conditions: OVCAR-8
[37] = IGROV1 cell killing – plate reader, dry powder samples, PAX8 inhibitor project, dose response (AID 743043); format: functional, cell-based; conditions: IGROV-1
[38] = OVCAR-3 cell viability loss – plate reader, dry powder samples, PAX8 inhibitor project, dose response (AID 743044); format: functional, cell-based
[39] = toxicity toward immortalized ovarian surface epithelium – cell-based, plate reader, dry powder samples, cytotoxicity control for PAX8 inhibitor project, dose response (AID 743045); format: functional
[40] = A2780 cell killing – plate reader, dry powder samples, cytotoxicity control, dose response (AID 743046); format: functional, cell-based

Sequence of Paired box protein Pax-8 (Q06710 whole entry): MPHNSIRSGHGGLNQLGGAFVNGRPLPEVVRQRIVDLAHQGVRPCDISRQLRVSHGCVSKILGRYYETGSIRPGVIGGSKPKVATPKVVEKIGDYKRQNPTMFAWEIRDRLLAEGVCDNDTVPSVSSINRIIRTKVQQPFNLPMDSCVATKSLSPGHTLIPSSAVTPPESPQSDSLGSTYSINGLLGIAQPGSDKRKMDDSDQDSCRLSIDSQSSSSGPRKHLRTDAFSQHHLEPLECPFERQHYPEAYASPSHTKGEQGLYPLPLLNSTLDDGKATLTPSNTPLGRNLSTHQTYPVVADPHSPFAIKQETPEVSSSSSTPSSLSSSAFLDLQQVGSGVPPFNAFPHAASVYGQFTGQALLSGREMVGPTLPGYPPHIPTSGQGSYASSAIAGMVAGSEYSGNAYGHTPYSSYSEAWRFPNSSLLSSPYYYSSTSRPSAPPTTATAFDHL
Sequence of Voltage-gated inwardly rectifying potassium channel KCNH2 (Q12809 whole entry): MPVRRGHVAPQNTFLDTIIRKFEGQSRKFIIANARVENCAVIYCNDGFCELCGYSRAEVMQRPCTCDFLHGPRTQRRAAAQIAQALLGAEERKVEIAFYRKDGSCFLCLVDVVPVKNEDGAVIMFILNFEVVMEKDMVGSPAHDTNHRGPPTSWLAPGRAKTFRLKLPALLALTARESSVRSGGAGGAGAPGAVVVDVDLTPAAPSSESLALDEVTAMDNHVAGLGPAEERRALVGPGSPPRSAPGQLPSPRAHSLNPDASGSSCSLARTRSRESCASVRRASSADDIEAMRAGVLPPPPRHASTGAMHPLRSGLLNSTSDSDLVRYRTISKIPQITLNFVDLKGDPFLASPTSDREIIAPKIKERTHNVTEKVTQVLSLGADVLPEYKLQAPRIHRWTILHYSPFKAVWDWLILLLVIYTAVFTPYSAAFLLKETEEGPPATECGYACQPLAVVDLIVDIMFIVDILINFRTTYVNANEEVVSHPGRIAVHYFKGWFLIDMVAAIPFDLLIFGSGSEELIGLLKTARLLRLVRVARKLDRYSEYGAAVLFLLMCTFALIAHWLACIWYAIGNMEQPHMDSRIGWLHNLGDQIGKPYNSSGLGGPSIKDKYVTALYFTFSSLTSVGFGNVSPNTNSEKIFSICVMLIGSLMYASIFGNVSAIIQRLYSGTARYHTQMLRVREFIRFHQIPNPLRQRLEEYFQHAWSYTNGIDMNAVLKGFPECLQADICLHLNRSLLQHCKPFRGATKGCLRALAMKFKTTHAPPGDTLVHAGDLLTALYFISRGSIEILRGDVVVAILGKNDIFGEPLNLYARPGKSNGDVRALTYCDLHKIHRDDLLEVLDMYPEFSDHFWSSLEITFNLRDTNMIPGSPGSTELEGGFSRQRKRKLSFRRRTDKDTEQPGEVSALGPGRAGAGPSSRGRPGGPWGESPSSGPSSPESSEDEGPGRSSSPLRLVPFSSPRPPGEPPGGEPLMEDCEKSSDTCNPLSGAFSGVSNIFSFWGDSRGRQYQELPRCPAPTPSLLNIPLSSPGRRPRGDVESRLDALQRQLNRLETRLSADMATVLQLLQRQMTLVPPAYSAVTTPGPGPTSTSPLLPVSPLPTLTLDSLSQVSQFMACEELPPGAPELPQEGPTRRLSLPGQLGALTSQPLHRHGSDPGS
Sequence of COUP transcription factor 2 (P24468 whole entry): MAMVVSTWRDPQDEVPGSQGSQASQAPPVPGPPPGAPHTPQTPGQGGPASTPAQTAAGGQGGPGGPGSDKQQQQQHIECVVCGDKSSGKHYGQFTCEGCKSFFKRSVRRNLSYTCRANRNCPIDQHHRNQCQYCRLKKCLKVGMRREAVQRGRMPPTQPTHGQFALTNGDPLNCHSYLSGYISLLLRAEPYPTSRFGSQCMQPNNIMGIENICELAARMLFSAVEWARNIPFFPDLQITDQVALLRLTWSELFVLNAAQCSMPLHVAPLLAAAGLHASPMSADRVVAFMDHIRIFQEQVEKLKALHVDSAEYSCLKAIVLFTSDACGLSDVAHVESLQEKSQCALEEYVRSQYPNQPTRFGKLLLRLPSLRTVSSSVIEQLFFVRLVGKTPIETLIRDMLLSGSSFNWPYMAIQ
Sequence of Cytochrome P450 2D6 (P10635 whole entry): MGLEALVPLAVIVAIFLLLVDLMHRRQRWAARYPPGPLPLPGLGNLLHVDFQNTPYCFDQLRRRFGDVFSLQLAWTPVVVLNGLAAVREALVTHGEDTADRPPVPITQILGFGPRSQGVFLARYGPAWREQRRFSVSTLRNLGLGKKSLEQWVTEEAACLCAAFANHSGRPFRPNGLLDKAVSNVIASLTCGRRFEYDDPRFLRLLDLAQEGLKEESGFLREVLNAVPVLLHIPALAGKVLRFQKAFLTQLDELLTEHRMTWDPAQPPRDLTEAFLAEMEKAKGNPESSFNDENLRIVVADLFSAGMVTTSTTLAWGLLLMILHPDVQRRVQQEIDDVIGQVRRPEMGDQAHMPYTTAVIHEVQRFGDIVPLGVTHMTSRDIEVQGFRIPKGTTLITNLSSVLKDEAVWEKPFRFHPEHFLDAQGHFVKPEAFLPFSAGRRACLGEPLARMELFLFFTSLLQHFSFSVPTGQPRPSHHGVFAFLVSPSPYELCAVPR
Sequence of Nucleotide-binding oligomerization domain-containing protein 2 (Q9HC29 whole entry, the tested form may be a part): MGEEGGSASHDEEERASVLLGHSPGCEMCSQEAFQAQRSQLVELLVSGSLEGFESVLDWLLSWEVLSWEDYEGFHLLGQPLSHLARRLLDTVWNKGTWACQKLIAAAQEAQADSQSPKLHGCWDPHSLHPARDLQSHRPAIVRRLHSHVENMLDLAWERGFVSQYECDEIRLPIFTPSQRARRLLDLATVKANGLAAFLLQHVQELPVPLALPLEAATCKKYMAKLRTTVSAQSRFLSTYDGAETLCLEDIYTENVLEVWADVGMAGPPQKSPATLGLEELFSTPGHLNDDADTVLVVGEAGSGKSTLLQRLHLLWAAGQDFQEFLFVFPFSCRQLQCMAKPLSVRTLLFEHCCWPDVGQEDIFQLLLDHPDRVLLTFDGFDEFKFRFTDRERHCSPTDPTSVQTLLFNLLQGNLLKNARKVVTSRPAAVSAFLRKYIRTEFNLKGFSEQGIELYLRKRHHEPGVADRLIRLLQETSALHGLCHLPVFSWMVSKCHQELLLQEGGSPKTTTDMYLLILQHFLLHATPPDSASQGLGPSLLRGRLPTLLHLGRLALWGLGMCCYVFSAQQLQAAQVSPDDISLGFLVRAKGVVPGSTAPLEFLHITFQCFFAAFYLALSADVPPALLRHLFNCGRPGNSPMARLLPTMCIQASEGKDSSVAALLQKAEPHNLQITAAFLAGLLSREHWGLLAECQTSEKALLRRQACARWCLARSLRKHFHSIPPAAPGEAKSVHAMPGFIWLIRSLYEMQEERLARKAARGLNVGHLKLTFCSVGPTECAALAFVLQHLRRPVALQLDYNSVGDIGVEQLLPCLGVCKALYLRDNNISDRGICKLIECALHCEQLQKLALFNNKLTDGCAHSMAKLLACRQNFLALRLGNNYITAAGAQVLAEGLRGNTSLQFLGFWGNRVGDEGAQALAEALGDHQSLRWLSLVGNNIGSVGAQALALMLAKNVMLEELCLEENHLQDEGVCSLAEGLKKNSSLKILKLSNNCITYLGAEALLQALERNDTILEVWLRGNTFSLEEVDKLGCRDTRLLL
Sequence of Cytochrome P450 3A4 (P08684 whole entry): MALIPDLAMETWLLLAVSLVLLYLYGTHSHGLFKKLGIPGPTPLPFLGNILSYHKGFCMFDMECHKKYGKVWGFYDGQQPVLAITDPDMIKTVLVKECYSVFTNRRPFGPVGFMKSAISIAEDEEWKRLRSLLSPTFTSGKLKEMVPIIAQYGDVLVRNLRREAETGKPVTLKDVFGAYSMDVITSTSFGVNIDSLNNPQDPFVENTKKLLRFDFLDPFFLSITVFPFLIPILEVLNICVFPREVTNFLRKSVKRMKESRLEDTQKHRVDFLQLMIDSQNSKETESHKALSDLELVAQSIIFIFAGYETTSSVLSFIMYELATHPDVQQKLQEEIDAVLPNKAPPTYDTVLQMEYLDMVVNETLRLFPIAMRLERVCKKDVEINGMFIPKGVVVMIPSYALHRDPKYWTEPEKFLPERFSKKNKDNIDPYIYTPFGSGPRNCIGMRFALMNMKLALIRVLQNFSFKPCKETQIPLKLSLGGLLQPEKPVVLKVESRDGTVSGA
Sequence of Cytochrome P450 2C9 (P11712 whole entry): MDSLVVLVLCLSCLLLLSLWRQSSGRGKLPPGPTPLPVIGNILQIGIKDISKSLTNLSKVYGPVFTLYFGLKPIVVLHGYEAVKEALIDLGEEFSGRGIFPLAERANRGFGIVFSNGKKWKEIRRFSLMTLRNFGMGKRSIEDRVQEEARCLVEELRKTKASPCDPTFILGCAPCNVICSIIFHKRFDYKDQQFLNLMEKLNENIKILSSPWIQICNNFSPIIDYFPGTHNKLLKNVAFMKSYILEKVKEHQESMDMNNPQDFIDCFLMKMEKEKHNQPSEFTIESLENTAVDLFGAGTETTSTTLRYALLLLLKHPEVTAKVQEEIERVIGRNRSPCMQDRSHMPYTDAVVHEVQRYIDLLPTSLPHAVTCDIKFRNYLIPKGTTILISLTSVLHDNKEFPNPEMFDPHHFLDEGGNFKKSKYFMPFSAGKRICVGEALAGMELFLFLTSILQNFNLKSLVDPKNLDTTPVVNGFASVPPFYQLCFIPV

O=C(NC(=S)Nc1ccccc1N1CCCC1)c1ccc([N+](=O)[O-])cc1
EC50 [1]: 3.24 µM (active)
IC50 [2]: 44.6 µM (inactive)
IC50 (Beta-galactosidase): > 66.6 µM (inactive)

Cc1ccc(-c2c[n+](-c3ccccc3)c3n2CCCS3)cc1
IC50 [3]: > 80 µM (inactive)
EC50 [4]: 0.709 µM (active)
EC50 [5]: 50.9 µM (active)
AC50 (INS1; Rattus norvegicus, INS1): 2.26 µM (active)
AC50 (INS1; ins1): 1.92 µM (active)
IC50 [6]: 17.4 µM (inactive)

Cc1cc(C)nc(NCC(O)CNc2ccccc2Cl)n1 (configuration not stated)
EC50 [7]: > 20 µM (not active)
EC50 [8]: > 20 µM (not active)

CCCc1ccc(C(=O)O/N=C(\N)c2ccccn2)cc1
AC50 (Paired box protein Pax-8): 5.93 µM (active)
IC50 [9]: 27.8 µM (not active)
EC50 [10]: 0.407 µM (active)
EC50 [11]: 1.2 µM (active)
IC50 [6]: 22.1 µM (inactive)

COC(=O)c1cc(NC(=O)c2ccc(-c3ccccc3)cc2)ccc1Cl
IC50 [12]: > 109 µM (inactive)
IC50 [13]: > 83.3 µM (inactive)

Cc1ccc(S(=O)(=O)N2CCCCC2)cc1NC(=O)Cn1ncc(Cl)c(Cl)c1=O
AC50 (Paired box protein Pax-8): 4.3 µM (active)
AC50 [14]: 8.36 µM (active)
AC50 [15]: 17.9 µM (active)
AC50 [16]: 4.32 µM (active)
AC50 [17]: 7.53 µM (active)
AC50 [18]: 9.07 µM (active)
AC50 [19]: 6.21 µM (active)
AC50 [20]: 2.6 µM (active)
AC50 [21]: 23.5 µM (active)
AC50 (A-375): 23.7 µM (active)
AC50 [22]: 17.5 µM (active)
AC50 [23]: 10.4 µM (active)

Cc1ccc(S(=O)(=O)NCC(=O)N(CC(=O)NC2CCCC2)c2ccc3c(c2)OCCO3)cc1
IC50 [12]: > 109 µM (inactive)
IC50 [13]: > 83.3 µM (inactive)

Cc1c(NC(C)C)c(=O)n(-c2ccccc2)n1C [RAMIFENAZONE]
AC50 (Cytochrome P450 2D6): 12.6 µM (inconclusive)
AC50 (Cytochrome P450 1A2): 0.0398 µM (inconclusive)
IC50 [24]: > 40 µM (inactive)
IC50 [25]: > 40 µM (inactive)

CCOc1ccc2nc(N3C(=O)/C(=C/c4ccccc4)NC3=S)sc2c1
EC50 [4]: 3.03 µM (active)
EC50 [5]: > 150 µM (inconclusive)
EC50 [1]: 0.44 µM (active)

COc1ccc(CC(=O)Nc2ccncc2Cl)cc1
AC50 [26]: 2.13 µM (active)
IC50 (HEK293 [27]): > 20 µM (inactive)
IC50 (HEK293 [28]): 14 µM (active)
AC50 [16]: 2.12 µM (active)
IC50 (HEK293 [29]): 17.8 µM (inactive)
EC50 (HEK293 [30]): 4.73 µM (active)
AC50 (INS1; Rattus norvegicus, INS1): 5.67 µM (active)
EC50 [31]: 14.9 µM (active)
AC50 [21]: 57.3 µM (active)
IC50 (HEK293 [32]): > 20 µM (inactive)

COc1ccc(NC(=O)N2CCCCN3[C@@H](CO)[C@H](c4ccc(-c5ccccc5F)cc4)[C@@H]3C2)cc1
AC50 [33]: 2.72 µM (active)

O=C(O)Cc1ccccc1C(=O)O [2-CARBOXYBENZENEACETIC ACID]
IC50 (Prothrombin): > 50 µM (not active)

CCc1ccc(C(=O)CN(C#N)c2nc(C)cc(C)n2)cc1
AC50 (Cytochrome P450 3A4): 25.1 µM (inconclusive)
AC50 (Cytochrome P450 2C9): inconclusive
AC50 [34]: 19.3 µM (active)

C[C@H](CO)N1C[C@H](C)[C@@H](CN(C)C(=O)Nc2ccc3c(c2)OCO3)Oc2cc(C#Cc3ccncc3)ccc2S1(=O)=O
AC50 (Paired box protein Pax-8): 3.02 µM (active)
AC50 [35]: 47.5 µM (active)
AC50 [36]: 8.81 µM (active)
AC50 [37]: 13.7 µM (active)
AC50 [38]: 5.21 µM (active)
AC50 [39]: 5.8 µM (active)
AC50 [40]: 10.9 µM (active)

C=CCn1cc(C(=O)NCc2ccc3c(c2)OCO3)c(=O)c2cc(S(=O)(=O)N(CC)CC)ccc21
IC50 (Prothrombin): 19.2 µM (active)
